Experimental data from PMC6915728 (Nature Communications, 2019).

Assays:
[1] = tested on: AMP-evolved E. coli lines; test: Cross-resistance / collateral sensitivity: relative MIC change of 38 laboratory-evolved AMP-resistant lines vs parental strain; assay type: cell-based, Escherichia coli; conditions: measured here
Source text: Here, we extended this dataset by measuring susceptibility changes of the same evolved lines to four additional AMPs using identical protocols to represent AMPs from all four clusters (Supplementary Fig. 15a, see also Methods). Overall, the resulting dataset of susceptibility profiles provides a comprehensive map of cross-resistance and collateral sensitivity between AMPs representing various modes of action.
To characterize the cross-resistance of the 38 E. coli lineages we obtained relative MIC changes that are, the MIC values of the evolved lines compared to these of the parental strain, from two data sources. First, we used already measured relative MIC changes from Spohn et al. Supplementary data 4[20]. […] Second, we extended this dataset by measuring the relative MIC changes of the same evolved lines to four additional AMPs using identical protocol. […] In this way, AMPs from each cluster were represented in the dataset.
Supplementary Figure 15. […] Relative change in MIC was determined for each evolved line by comparing its MIC to the ancestral cell line (control). […] CAP18-adaped lines were not included in the analysis because CAP18 is known as a membrane-targeting AMP in the literature. c, Cross-resistance interactions are enriched between membrane-targeting AMPs that are in the same chemical-genetic clusters (i.e. AMP pairs within C1 and within C2 clusters) (Significant difference: ** P = 0.0082 from two-sided Fisher’s exact test, n = 61 and 62 for within cluster and between clusters, respectively). […] Source data are provided as a Source Data file.

E. coli BW25113 ΔmlaD = test: MIC, serial broth dilution, mlaD knockout strain vs wild type; assay type: cell-based, Escherichia coli
Description: What could be the mechanism behind the antagonistic action of this pathway on membrane- versus intracellular-targeting AMPs? Since MlaD is part of a protein complex, it may lead to a loss-of-function effect upon overexpression[41],[42]. To test this, we asked whether overexpression and deletion of mlaD cause similar changes in susceptibility to a representative set of membrane- and intracellular-targeting AMPs.
Minimum inhibitory concentrations (MIC) were determined with a standard serial broth dilution technique with a minor modification. Specifically, instead of a two-fold dilution series, smaller AMP concentration steps were used (typically 1.2-fold) for two reasons. […] Second, gene overexpressions caused typically only small changes in the MICs of AMPs and therefore higher resolution was required. The protocol was as follows. From a stock solution of an AMP, 12-steps serial dilution was prepared in fresh MS medium in 96-well microtiter plates. Each AMP was represented in 11 different concentrations (3 wells per AMP concentration per strain). Three wells contained only medium to check the growth in the absence of AMP. After overnight growth in MS medium supplemented with chloramphenicol, bacterial strains were diluted 20-fold into fresh MS medium and grown until the cell density reached OD600 ~1. Cells were induced by 100 µM of IPTG and incubated for 1 h at 30 °C with continuous shaking at 300 rpm. Following incubation, approximately half-million cells were inoculated into the wells of the 96-well microtiter plate with a 96‐pin replicator. We used three independent replicates for each strain and the corresponding control. Two rows in the 96-well plate contained only MS medium in order to obtain the background OD value of the medium. Plates were incubated at 30 °C with continuous shaking at 300 rpm. After 20–24 h of incubation, OD600 values were measured in a microplate reader (Biotek Synergy 2).
A mlaD knockout strain of E. coli BW25113 carrying a kanamycin resistance cassette in the position of the gene was selected from the KEIO collection. The resistance marker was removed using plasmid-borne (pFT-A) expression of FLP recombinase leading to excision of the kanamycin resistance cassette. Cassette excision was verified by a polymerase chain reaction using the primers mlaD_del_ver_Fw (5′- […]) and mlaD_del_ver_Rev (5′- […]).
Supplementary Figure 13. […] The bacterial susceptibility of the mutant to AMPs was tested by MIC determination. Growth is shown relative to growth in the absence of the corresponding AMP. The blue line represents the mlaD knockout strain and the orange line represents the control strain (wild-type E. coli BW25113). Error bars indicate the standard errors based on three biological replicates. Source data are provided in the Source Data file.

bacterial membrane = conditions: literature mining; ref superscript numbers in the cell, listed in Supplementary Data 7 sheet References; cited from earlier work
Source text: Supplement 41467_2019_13618_MOESM10_ESM.xlsx, sheet "AMP details" | column: Pore formation

Sequence | Relative change in MIC (MIC of the AMP-adpated line / MIC of the ancestral strain) ([1]; AMP-adapted line CAP18_2) | Relative change in MIC (MIC of the AMP-adpated line / MIC of the ancestral strain) ([1]; AMP-adapted line CAP18_5) | Relative change in MIC (MIC of the AMP-adpated line / MIC of the ancestral strain) ([1]; AMP-adapted line CAP18_6) | Relative change in MIC (MIC of the AMP-adpated line / MIC of the ancestral strain) ([1]; AMP-adapted line CAP18_8) | Relative change in MIC (MIC of the AMP-adpated line / MIC of the ancestral strain) ([1]; AMP-adapted line CAP18_10) | Relative change in MIC (MIC of the AMP-adpated line / MIC of the ancestral strain) ([1]; AMP-adapted line HBD3_3) | Relative change in MIC (MIC of the AMP-adpated line / MIC of the ancestral strain) ([1]; AMP-adapted line HBD3_6) | Relative change in MIC (MIC of the AMP-adpated line / MIC of the ancestral strain) ([1]; AMP-adapted line HBD3_8) | Relative change in MIC (MIC of the AMP-adpated line / MIC of the ancestral strain) ([1]; AMP-adapted line HBD3_10) | Relative change in MIC (MIC of the AMP-adpated line / MIC of the ancestral strain) ([1]; AMP-adapted line LL37_1) | Relative change in MIC (MIC of the AMP-adpated line / MIC of the ancestral strain) ([1]; AMP-adapted line LL37_3) | Relative change in MIC (MIC of the AMP-adpated line / MIC of the ancestral strain) ([1]; AMP-adapted line LL37_6) | Relative change in MIC (MIC of the AMP-adpated line / MIC of the ancestral strain) ([1]; AMP-adapted line LL37_7) | Relative change in MIC (MIC of the AMP-adpated line / MIC of the ancestral strain) ([1]; AMP-adapted line LL37_10) | Relative change in MIC (MIC of the AMP-adpated line / MIC of the ancestral strain) ([1]; AMP-adapted line PEX_1) | Relative change in MIC (MIC of the AMP-adpated line / MIC of the ancestral strain) ([1]; AMP-adapted line PEX_4) | Relative change in MIC (MIC of the AMP-adpated line / MIC of the ancestral strain) ([1]; AMP-adapted line PEX_5) | Relative change in MIC (MIC of the AMP-adpated line / MIC of the ancestral strain) ([1]; AMP-adapted line PEX_6) | Relative change in MIC (MIC of the AMP-adpated line / MIC of the ancestral strain) ([1]; AMP-adapted line PEX_7) | Pore formation (whether AMP makes pores in the bacterial membrane) (bacterial membrane) | other results
RFRPPIRRPPIRPPFYPPFRPPIRPPIFPPIRPPFRPPLGPFP [BAC5, Bactenecin 5, antimicrobial peptide from bovine neutrophils; cluster C4] | 1 | 0.915 | 0.915 | 1 | 0.915 | 1 | 0.9167 | 1 | 1 | 0.915 | 1 | 0.915 | 1 | 0.915 | 1.1 | 1.1 | 1 | 1.1 | 1 | – | Relative change in MIC (MIC of the AMP-adpated line / MIC of the ancestral strain) ([1]; AMP-adapted line PR39_1): >4.30; Relative change in MIC (MIC of the AMP-adpated line / MIC of the ancestral strain) ([1]; AMP-adapted line PR39_2): 2.0736; Relative change in MIC (MIC of the AMP-adpated line / MIC of the ancestral strain) ([1]; AMP-adapted line PR39_5): 4.3; Relative change in MIC (MIC of the AMP-adpated line / MIC of the ancestral strain) ([1]; AMP-adapted line PR39_7): 1.9; Relative change in MIC (MIC of the AMP-adpated line / MIC of the ancestral strain) ([1]; AMP-adapted line PR39_10): 2.986; Relative change in MIC (MIC of the AMP-adpated line / MIC of the ancestral strain) ([1]; AMP-adapted line PROA_2): 1.2; Relative change in MIC (MIC of the AMP-adpated line / MIC of the ancestral strain) ([1]; AMP-adapted line PROA_3): 1; Relative change in MIC (MIC of the AMP-adpated line / MIC of the ancestral strain) ([1]; AMP-adapted line PROA_7): 1.1; Relative change in MIC (MIC of the AMP-adpated line / MIC of the ancestral strain) ([1]; AMP-adapted line PROA_8): 1.1; Relative change in MIC (MIC of the AMP-adpated line / MIC of the ancestral strain) ([1]; AMP-adapted line PROA_9): 1.1; Relative change in MIC (MIC of the AMP-adpated line / MIC of the ancestral strain) ([1]; AMP-adapted line PXB_2): 1.32; Relative change in MIC (MIC of the AMP-adpated line / MIC of the ancestral strain) ([1]; AMP-adapted line PXB_5): 1.1; Relative change in MIC (MIC of the AMP-adpated line / MIC of the ancestral strain) ([1]; AMP-adapted line PXB_6): 1; Relative change in MIC (MIC of the AMP-adpated line / MIC of the ancestral strain) ([1]; AMP-adapted line PXB_8): 1; Relative change in MIC (MIC of the AMP-adpated line / MIC of the ancestral strain) ([1]; AMP-adapted line PXB_10): 0.915; Average relative change in MIC (E. coli BW25113 ΔmlaD; mlaD deletion strain vs control E. coli BW25113, average of 3 replicates): 0.67
KTKKKFLKKT [PXB, Polymyxin B, from Bacillus polymyxa, purchased from Sigma-Aldrich; disrupts cell membrane; cluster C1] | – | – | – | – | – | – | – | – | – | – | – | – | – | – | – | – | – | – | – | Yes2 | –
GLRKRLRKFRNKIKEKLKKIGQKIQGFVPKLAPRTDY [CAP18, antimicrobial peptide, source rabbit; disrupts cell membrane; cluster C3] | – | – | – | – | – | – | – | – | – | – | – | – | – | – | – | – | – | – | – | Yes35 | Average relative change in MIC (E. coli BW25113 ΔmlaD; mlaD deletion strain relative to control (E. coli BW25113), 3 replicates each, from optical density values of serial dilution plates, AMP in µg ml-1): 2.25
RRRPRPPYLPRPRPPPFFPPRLPPRIPPGFPPRFPPRFP [PR39, PR-39, cathelicidin, source pig; cluster C4] | 1 | 0.915 | 0.83 | 1 | 0.83 | 1 | 0.915 | 1.1 | 1.1 | 1.1 | 1.1 | 1.1 | 1.2 | 0.915 | 1 | 1 | 0.915 | 1 | 1 | No9 | Relative change in MIC (MIC of the AMP-adpated line / MIC of the ancestral strain) ([1]; AMP-adapted line BAC5_3): 1.32; Relative change in MIC (MIC of the AMP-adpated line / MIC of the ancestral strain) ([1]; AMP-adapted line BAC5_5): 1.464; Relative change in MIC (MIC of the AMP-adpated line / MIC of the ancestral strain) ([1]; AMP-adapted line BAC5_7): 1.584; Relative change in MIC (MIC of the AMP-adpated line / MIC of the ancestral strain) ([1]; AMP-adapted line BAC5_10): 1.57; Relative change in MIC (MIC of the AMP-adpated line / MIC of the ancestral strain) ([1]; AMP-adapted line PROA_2): 1; Relative change in MIC (MIC of the AMP-adpated line / MIC of the ancestral strain) ([1]; AMP-adapted line PROA_3): 0.915; Relative change in MIC (MIC of the AMP-adpated line / MIC of the ancestral strain) ([1]; AMP-adapted line PROA_7): 1; Relative change in MIC (MIC of the AMP-adpated line / MIC of the ancestral strain) ([1]; AMP-adapted line PROA_8): 1; Relative change in MIC (MIC of the AMP-adpated line / MIC of the ancestral strain) ([1]; AMP-adapted line PROA_9): 1; Relative change in MIC (MIC of the AMP-adpated line / MIC of the ancestral strain) ([1]; AMP-adapted line PXB_2): 1.728; Relative change in MIC (MIC of the AMP-adpated line / MIC of the ancestral strain) ([1]; AMP-adapted line PXB_5): 1.44; Relative change in MIC (MIC of the AMP-adpated line / MIC of the ancestral strain) ([1]; AMP-adapted line PXB_6): 1.728; Relative change in MIC (MIC of the AMP-adpated line / MIC of the ancestral strain) ([1]; AMP-adapted line PXB_8): 1.44; Relative change in MIC (MIC of the AMP-adpated line / MIC of the ancestral strain) ([1]; AMP-adapted line PXB_10): 1
